Laboratory results reported in publication PMC6934184, “Selective DNA-PKcs inhibition extends the therapeutic index of localized radiotherapy and chemotherapy” (The Journal of Clinical Investigation, 2019).

Target: T1, ACVR2A (Homo sapiens, UniProt P27037)
T1 construct: purchased Thermo Fisher Scientific (Life Technologies) SelectScreen
Assay: SelectScreen LanthaScreen
Type: binding
Details: read-out: % displacement
Outline: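 Percent values come from Thermo SelectScreen profiling of NU5455, combining activity and binding assays. CSF1R was run in Z'LYTE format at Km app ATP, and CAMK1 in Adapta format with ATP listed at 10.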

T1 sequence (P27037 20-513): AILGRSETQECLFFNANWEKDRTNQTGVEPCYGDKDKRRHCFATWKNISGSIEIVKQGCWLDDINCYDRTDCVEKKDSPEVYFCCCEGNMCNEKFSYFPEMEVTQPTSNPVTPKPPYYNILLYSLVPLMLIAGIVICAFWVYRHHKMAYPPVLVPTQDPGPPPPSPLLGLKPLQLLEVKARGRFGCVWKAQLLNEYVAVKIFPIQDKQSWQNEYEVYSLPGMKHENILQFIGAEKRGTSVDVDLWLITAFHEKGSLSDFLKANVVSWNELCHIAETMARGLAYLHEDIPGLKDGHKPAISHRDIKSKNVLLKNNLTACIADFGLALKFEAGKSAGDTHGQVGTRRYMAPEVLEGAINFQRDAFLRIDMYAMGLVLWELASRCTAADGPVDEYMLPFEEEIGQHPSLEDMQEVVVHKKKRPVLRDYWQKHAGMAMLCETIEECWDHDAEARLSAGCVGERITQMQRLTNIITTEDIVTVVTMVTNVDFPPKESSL

Compound: CN(C(=O)CN1CCOCC1)c1ccc2sc3c(-c4cccc5c(=O)cc(N6CC7CCC(C6)O7)oc45)cccc3c2c1 [NU5455]
- inhibition at 1 µM: 2.5%
